Counter-ions that a name gives are not always drawn. Like-named read-outs stand apart in the source and are kept apart here. Each block holds one compound with its values, some of them ahead of it.
How the values were obtained:
[1] = tested on: PKA; settings: cited from earlier work
[2] = target: PKA-N-HiBiT (Homo sapiens, UniProt P17612); assay: SDR assay, PKA-N-HiBiT
[3] = target: T1, ABL1-N-HiBiT kinase domain (Homo sapiens, UniProt P00519); assay: SDR assay, ABL1-N-HiBiT; settings: ABL1-N-HiBiT qHTS; average maximal SDR response
T1 sequence (P00519 233-500): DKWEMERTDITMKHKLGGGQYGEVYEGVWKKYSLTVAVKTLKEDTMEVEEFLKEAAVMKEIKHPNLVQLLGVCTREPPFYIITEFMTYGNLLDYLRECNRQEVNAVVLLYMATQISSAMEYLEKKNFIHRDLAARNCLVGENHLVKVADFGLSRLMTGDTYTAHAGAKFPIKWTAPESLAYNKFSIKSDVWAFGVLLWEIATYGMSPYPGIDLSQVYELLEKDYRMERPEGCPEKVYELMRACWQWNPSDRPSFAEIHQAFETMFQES

[4] = target: T2, NLuc (Oplophorus gracilirostris, UniProt Q9GV45, A31E/A60N/A81I/F95D/I117V/K70R/L54V/L99Q/M102K/N193R/P142E/Q151K/Q38R/Q45L/V71I/Y165I); type: biochemical; settings: - ATP
T2 construct: His tag (inferred from IMAC purification); made in house; host or cells: E. coli
In short: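 Luminescence was read 10 min after Nano-Glo reagent addition. Enzyme was 1 nM NLuc in PBS/0.05% IGEPAL buffer, with or without ATP.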

[5] = target: P. pyralis FLuc (Photinus pyralis, UniProt P08659); assay: FLuc enzymatic luminescence assay, P. pyralis FLuc; type: biochemical; settings: FLuc enzymatic assay, Clade S follow-up; for IC50: read-out: IC50 or SDR50 (mM) FLuc E
In short: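 Runs with and without 10 µM ATP: compounds were pre-incubated with FLuc (1–10 nM, PBS pH 7.4) at ambient temperature, light-protected, for 30–60 min. Luminescence was imaged 5 min after adding 10 µM D-luciferin (final). Inhibition was scaled between DMSO neutral and no-enzyme controls.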

[6] = target: T3, FLuc-C-HiBiT (Photinus pyralis, UniProt P08659); assay: biochemical; settings: enzyme activity, 10 uM ATP; read-out: IC50 or SDR50 (mM) / FLuc E
T3 construct: firefly luciferase with C-terminal HiBiT tag, E. coli expressed

[7] = target: FLuc-C-NLuc (firefly luciferase) (Photinus pyralis, UniProt P08659, form not given/L550V); assay: SDR assay, FLuc-C-NLuc; settings: - ATP
[8] = target: FLuc-C-HiBiT (firefly luciferase) (Photinus pyralis, UniProt P08659, form not given/L550V); assay: SDR assay, FLuc-C-HiBiT; settings: for % Activity (max response, + ATP) / % Activity (max response, - ATP): SDR max. response, clade S; for % Activity (max response, - ATP) / pSDR50 (clade S): - ATP; for pSDR50 (clade S): dihydro-imidazo-oxazine (clade S)
[9] = annotation yes/no for kinase library compound, source not given
[10] = PKA-N-HiBiT qHTS, SDR assay, average maximal response

T2 sequence (Q9GV45 other isoform, or with tags, fused parts or gaps with the stated changes): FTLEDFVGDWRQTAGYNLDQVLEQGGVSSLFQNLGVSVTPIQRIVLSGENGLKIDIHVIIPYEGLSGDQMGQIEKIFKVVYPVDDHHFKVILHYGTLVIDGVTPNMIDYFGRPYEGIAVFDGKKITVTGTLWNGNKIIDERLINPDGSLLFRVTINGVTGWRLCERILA
Sequence of FLuc-C-NLuc (firefly luciferase) (P08659 2-550 L550V, form open): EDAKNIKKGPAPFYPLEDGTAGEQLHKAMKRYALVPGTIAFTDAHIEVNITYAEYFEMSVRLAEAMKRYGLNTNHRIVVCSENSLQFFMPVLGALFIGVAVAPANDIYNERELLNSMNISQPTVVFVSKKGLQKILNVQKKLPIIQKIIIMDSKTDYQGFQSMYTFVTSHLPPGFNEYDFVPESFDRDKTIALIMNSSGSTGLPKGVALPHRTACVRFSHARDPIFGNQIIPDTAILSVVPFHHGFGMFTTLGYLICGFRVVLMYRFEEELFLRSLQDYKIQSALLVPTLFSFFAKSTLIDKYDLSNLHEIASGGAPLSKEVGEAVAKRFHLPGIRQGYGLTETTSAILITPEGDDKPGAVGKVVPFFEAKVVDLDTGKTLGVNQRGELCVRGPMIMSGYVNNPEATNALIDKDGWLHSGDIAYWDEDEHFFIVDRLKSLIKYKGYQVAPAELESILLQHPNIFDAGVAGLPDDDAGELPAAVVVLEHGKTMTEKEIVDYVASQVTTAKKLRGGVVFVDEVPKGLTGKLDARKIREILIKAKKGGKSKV
Sequence of FLuc-C-HiBiT (firefly luciferase) (P08659 2-550 L550V, form open): as above
Sequence of P. pyralis FLuc (P08659 whole entry): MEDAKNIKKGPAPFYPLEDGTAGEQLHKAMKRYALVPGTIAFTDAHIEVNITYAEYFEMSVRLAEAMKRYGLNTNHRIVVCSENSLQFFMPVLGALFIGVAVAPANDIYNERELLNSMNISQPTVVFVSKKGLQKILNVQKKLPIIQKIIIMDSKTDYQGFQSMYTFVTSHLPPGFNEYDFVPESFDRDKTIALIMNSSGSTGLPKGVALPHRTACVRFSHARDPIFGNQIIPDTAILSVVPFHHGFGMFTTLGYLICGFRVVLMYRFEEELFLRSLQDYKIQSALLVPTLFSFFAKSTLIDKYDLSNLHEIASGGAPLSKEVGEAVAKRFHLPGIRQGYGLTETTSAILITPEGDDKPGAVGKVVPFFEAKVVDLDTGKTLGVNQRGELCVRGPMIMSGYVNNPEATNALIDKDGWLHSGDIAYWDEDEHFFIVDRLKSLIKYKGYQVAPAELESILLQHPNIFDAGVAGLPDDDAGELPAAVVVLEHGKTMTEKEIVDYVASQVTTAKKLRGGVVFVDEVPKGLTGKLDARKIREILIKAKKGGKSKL
T3 sequence (P08659 whole entry, looked up): as the sequence (P08659 whole entry) above

SDR Ave Max Response [2, 10]: -12.03
SDR Ave Max Response [3]: 100.16
Compound: CN1CCN([C@H]2CC[C@H](n3cc(-c4ccc(Oc5ccccc5)cc4)c4c(N)ncnc43)CC2)CC1 [A-419259]
Annotated PKA activity [1, 9]: no

Compound: COc1ccc2c(Oc3ccc(NC(=O)c4c(C)n(CC(C)(C)O)n(-c5ccccc5)c4=O)nc3)ccnc2c1 [AMG-458]
Annotated PKA activity [1, 9]: yes
EC50 [2]: 10700 nM
SDR Ave Max Response [2]: -17.61
EC50 ([2]; read-out: PKA SDR Ave SDR50): 10700 nM
SDR Ave Max Response [3]: 38.29

Compound: COc1ccc(CNC(=O)Nc2ncc([N+](=O)[O-])s2)cc1 [AR-A014418]
Annotated PKA activity [1, 9]: no
SDR Ave Max Response [2, 10]: -0.25
SDR Ave Max Response [3]: -7.75

Compound: CCN1CCN(Cc2ccc(NC(=O)Nc3ccc(Oc4cc(NC)ncn4)cc3)cc2C(F)(F)F)CC1 [AST-487]
Annotated PKA activity [1, 9]: yes

SDR Ave Max Response [2, 10]: -3.36
Compound: CNC(=O)c1ccccc1Sc1ccc2c(/C=C/c3ccccn3)n[nH]c2c1 [Axitinib]
Annotated PKA activity [1, 9]: no

Compound: C=CC(=O)Nc1cc2c(Nc3ccc(F)c(Cl)c3)ncnc2cc1OCCCN1CCOCC1 [Canertinib]
Annotated PKA activity [1, 9]: no

SDR Ave Max Response [2, 10]: 4.52
Compound: CO[C@@H](C(=O)N1Cc2n[nH]c(NC(=O)c3ccc(N4CCN(C)CC4)cc3)c2C1)c1ccccc1 [Danusertib]
Annotated PKA activity [1, 9]: no

Compound: COc1cc2c(Oc3ccc(NC(=O)C4(C(=O)Nc5ccc(F)cc5)CC4)cc3F)ccnc2cc1OCCCN1CCOCC1 [Foretinib]
Annotated PKA activity [1, 9]: no

Compound: COc1cc2ncnc(Nc3ccc(F)c(Cl)c3)c2cc1OCCCN1CCOCC1 [Gefitinib]
Annotated PKA activity [1, 9]: no

SDR Ave Max Response [2, 10]: 2.67
Compound: C/N=c1\ncc2cc(-c3cc(NC(=O)NCCC(C)(C)C)c(F)cc3C)c(C)nc2[nH]1 [LY-3009120]
Annotated PKA activity [1, 9]: no

Compound: Cc1ccc(NC(=O)c2ccc(CN3CCN(C)CC3)cc2)cc1Nc1nc(-c2cccnc2)cs1 [Masitinib]
Annotated PKA activity [1, 9]: no

Compound: Nc1ncccc1-c1nc2ccc(-c3ccccc3)nc2n1-c1ccc(C2(N)CCC2)cc1 [Miransertib]
Annotated PKA activity [1, 9]: no

Compound: CCOc1ccc(NC(=O)C2CCN(C(=O)c3ncn4c3COC(c3ccccc3)C4)CC2)cc1 (centres unmarked) [NCGC00449913-01]
Efficacy (%) NLuc (- ATP) [4]: -11.50%
Efficacy (%) FLuc E [5]: -92.73%
pIC50 or pSDR50 FLuc E [5]: 5.36
IC50 [5]: 0.00441 mM
IC50 [6]: 0.007 mM
Efficacy (%) FLuc-C-NLuc SDR (-ATP) [7]: 0.00%
% Activity (max response, + ATP) [8]: 212.53%
% Activity (max response, - ATP) [8]: 0.00%

Compound: O=C(Nc1cccc(F)c1)C1CCN(C(=O)c2ncn3c2COC(c2ccccc2)C3)CC1 (centres unmarked) [NCGC00449914-01]
Efficacy (%) NLuc (- ATP) [4]: 0.00%
Efficacy (%) FLuc E [5]: -105.74%
pIC50 or pSDR50 FLuc E [5]: 6.21
IC50 [5]: 0.00062 mM
IC50 [6]: 0.000881 mM
Efficacy (%) FLuc-C-NLuc SDR (-ATP) [7]: 0.00%
% Activity (max response, + ATP) [8]: 387.59%
% Activity (max response, - ATP) [8]: 0.00%

Compound: O=C(Nc1ccc(F)cc1)C1CCN(C(=O)c2ncn3c2COC(c2ccccc2)C3)CC1 (centres unmarked) [NCGC00449915-01]
Efficacy (%) NLuc (- ATP) [4]: 0.00%
Efficacy (%) FLuc E [5]: -91.87%
pIC50 or pSDR50 FLuc E [5]: 5.91
IC50 [5]: 0.00124 mM
IC50 [6]: 0.00176 mM
Efficacy (%) FLuc-C-NLuc SDR (-ATP) [7]: 0.00%
% Activity (max response, + ATP) [8]: 357.60%
% Activity (max response, - ATP) [8]: 0.00%

Compound: O=C(Nc1ccc(F)c(F)c1)C1CCN(C(=O)c2ncn3c2COC(c2ccccc2)C3)CC1 (centres unmarked) [NCGC00449916-01]
Efficacy (%) NLuc (- ATP) [4]: 0.00%
Efficacy (%) FLuc E [5]: -98.00%
pIC50 or pSDR50 FLuc E [5]: 6.11
IC50 [5]: 0.00078 mM
IC50 [6]: 0.000989 mM
Efficacy (%) FLuc-C-NLuc SDR (-ATP) [7]: 0.00%
% Activity (max response, + ATP) [8]: 236.10%
% Activity (max response, - ATP) [8]: 8.48%

Compound: O=C(Nc1ccc(Cl)cc1)C1CCN(C(=O)c2ncn3c2COC(c2ccccc2)C3)CC1 (centres unmarked) [NCGC00449917-01]
Efficacy (%) NLuc (- ATP) [4]: 0.00%
Efficacy (%) FLuc E [5]: -91.81%
pIC50 or pSDR50 FLuc E [5]: 5.81
IC50 [5]: 0.00157 mM
IC50 [6]: 0.00176 mM
Efficacy (%) FLuc-C-NLuc SDR (-ATP) [7]: 0.00%
% Activity (max response, + ATP) [8]: 361.85%
% Activity (max response, - ATP) [8]: 0.00%

Compound: O=C(Nc1ccc(F)c(Cl)c1)C1CCN(C(=O)c2ncn3c2COC(c2ccccc2)C3)CC1 (centres unmarked) [NCGC00449918-01]
Efficacy (%) NLuc (- ATP) [4]: 0.00%
Efficacy (%) FLuc E [5]: -99.81%
pIC50 or pSDR50 FLuc E [5]: 6.16
IC50 [5]: 0.0007 mM
IC50 [6]: 0.000989 mM
Efficacy (%) FLuc-C-NLuc SDR (-ATP) [7]: 0.00%
% Activity (max response, + ATP) [8]: 238.83%
% Activity (max response, - ATP) [8]: 49.33%
pSDR50 (clade S) [8]: 4.95

Compound: COc1ccc(NC(=O)C2CCN(C(=O)c3ncn4c3COC(c3ccccc3)C4)CC2)cc1Cl (centres unmarked) [NCGC00449919-01]
Efficacy (%) NLuc (- ATP) [4]: -11.50%
Efficacy (%) FLuc E [5]: -103.24%
pIC50 or pSDR50 FLuc E [5]: 6.36
IC50 [5]: 0.00044 mM
IC50 [6]: 0.000881 mM
Efficacy (%) FLuc-C-NLuc SDR (-ATP) [7]: -15.13%
% Activity (max response, + ATP) [8]: 241.73%
% Activity (max response, - ATP) [8]: 38.71%
pSDR50 (clade S) [8]: 4.85

Compound: COc1ccc(C)cc1NC(=O)C1CCN(C(=O)c2ncn3c2COC(c2ccc(F)cc2)C3)CC1 (centres unmarked) [NCGC00449936-01]
Efficacy (%) NLuc (- ATP) [4]: 0.00%
Efficacy (%) FLuc E [5]: -99.49%
pIC50 or pSDR50 FLuc E [5]: 5.06
IC50 [5]: 0.0088 mM
IC50 [6]: 0.00989 mM
Efficacy (%) FLuc-C-NLuc SDR (-ATP) [7]: 0.00%
% Activity (max response, + ATP) [8]: 128.83%
% Activity (max response, - ATP) [8]: -5.78%

SDR Ave Max Response [2, 10]: -6.66
Compound: Cc1cc(NC(=O)c2ccc(C)c(Nc3nccc(-c4cccnc4)n3)c2)cc(-n2cnc(C)c2)c1 [NSC762948]
Annotated PKA activity [1, 9]: no

SDR Ave Max Response [2, 10]: -2.45
Compound: Cc1cn(-c2cccc(NC(=O)c3ccc(C)c(Nc4nccc(-c5cccnc5)n4)c3)c2)cn1 [NSC762949]
Annotated PKA activity [1, 9]: no

SDR Ave Max Response [2, 10]: -15.93
Compound: Cc1cn(-c2cc(F)cc(NC(=O)c3ccc(C)c(Nc4nccc(-c5cccnc5)n4)c3)c2)cn1 [NSC762950]
Annotated PKA activity [1, 9]: no

SDR Ave Max Response [2, 10]: -17.64
Compound: Cc1cc(Nc2ncc3cc(-c4c(Cl)cccc4Cl)c(=O)n(C)c3n2)ccc1F [PD 180970]
Annotated PKA activity [1, 9]: no

Compound: CSc1cccc(Nc2ncc3cc(-c4c(Cl)cccc4Cl)c(=O)n(C)c3n2)c1 [PD-173955]
Annotated PKA activity [1, 9]: no

SDR Ave Max Response [2, 10]: 5.85
Compound: COc1cc2c(cc1OC)-c1[nH]nc(Nc3cccc(F)c3)c1C2 [PDGF RTK inhibitor IV]
Annotated PKA activity [1, 9]: no

Compound: CC(C)n1nc(-c2cc3cc(O)ccc3[nH]2)c2c(N)ncnc21 [PP 242]
Annotated PKA activity [1]: yes

Compound: CN1CCN(CCOc2cc(OC3CCOCC3)c3c(Nc4c(Cl)ccc5c4OCO5)ncnc3c2)CC1 [Saracatinib]
Annotated PKA activity [1, 9]: no
SDR Ave Max Response [2, 10]: 3.81

Compound: Cc1cc(C)c(/C=C2\C(=O)Nc3ccccc32)[nH]1 [Semaxanib]
Annotated PKA activity [1, 9]: no

SDR Ave Max Response [2, 10]: -13.83
Compound: Cc1cc(-c2cc(O)ccc2Cl)cc2nnc(Nc3ccc(OCCN4CCCC4)cc3)nc12 [TG 100572 HCl]
Annotated PKA activity [1, 9]: no

Compound: CN[C@@H]1C[C@H]2O[C@@](C)([C@@H]1OC)n1c3ccccc3c3c4c(c5c6ccccc6n2c5c31)C(=O)NC4 [staurosporine, reference compound]
Annotated PKA activity [1, 9]: yes

Compound: PHA-665752
Annotated PKA activity [1, 9]: no

SDR Ave Max Response [2, 10]: 28.42
EC50 ([2]; read-out: PKA SDR Ave SDR50, PKA-N-HiBiT qHTS, SDR assay, average): 9600 nM
Compound: TAE-684
Annotated PKA activity [1, 9]: no

Compound: Tozasertib
Annotated PKA activity [1, 9]: no
SDR Ave Max Response [2]: -1.35

— paper PMC12064818, “A general assay platform to study protein pharmacology using ligand-dependent structural dynamics” (Nature Communications, 2025)
